In ChEMBL document CHEMBL1139041, “Design and synthesis of 2'-anilino-4,4'-bipyridines as selective inhibitors of c-Jun N-terminal kinase-3” (Bioorg Med Chem Lett, 2006):
Values after ≈ are worked out from the molar mass of the structure shown.

Columns and labels:
[1] = Solubility in phosphate buffer at pH 7.4; assay type: physicochemical
[2] = Intrinsic clearance in rat microsomes; assay type: ADME, Microsome; details: liver microsomes
[3] = Bioavailability in rat; assay type: ADME, organism-based; details: in vivo
[4] = Permeability across Caco-2 cell membrane; assay type: ADME, cell-based; details: human, read-out: permeability
[5] = Half life in po dosed rat; assay type: ADME, organism-based; details: in vivo
[6] = Clearance in rat; assay type: ADME, organism-based; details: in vivo

SMILES: O=C(Nc1cc(-c2ccnc(Nc3ccccc3)c2)ccn1)c1cccnc1
- solubility [1]: 17 µM (≈ 6.25 µg/mL)

SMILES: COCCC(=O)Nc1cc(-c2ccnc(Nc3ccccc3)c2)ccn1
- solubility [1]: 20 µM (≈ 6.97 µg/mL)

SMILES: Fc1ccc(Nc2cc(-c3ccnc(Nc4ccc(F)cc4)c3)ccn2)cc1
- solubility [1]: < 0.1 µM

SMILES: Cc1cnc(C(=O)Nc2cc(-c3ccnc(Nc4ccccc4)c3)ccn2)cn1
- solubility [1]: 40 µM (≈ 15.3 µg/mL)

SMILES: COC1CCC(C(=O)Nc2cc(-c3ccnc(Nc4ccccc4)c3)ccn2)CC1 (configuration not stated)
- solubility [1]: 8 µM (≈ 3.22 µg/mL)

SMILES: O=C(Nc1cc(-c2ccnc(Nc3ccccc3)c2)ccn1)C1CCOC1 (configuration not stated)
- microsomal CLint [2]: 12 µL/min/mg
- bioavailability [3]: 16%
- Papp [4]: 29.9 ×10⁻⁶ cm/s
- half-life [5]: 4.7 h
- clearance [6]: 30 mL/min/kg

SMILES: CC(=O)N1CCC(C(=O)Nc2cc(-c3ccnc(Nc4ccccc4)c3)ccn2)CC1
- solubility [1]: 94 µM (≈ 39.1 µg/mL)

SMILES: O=C(Nc1cc(-c2ccnc(Nc3ccccc3)c2)ccn1)c1ccco1
- solubility [1]: 4 µM (≈ 1.43 µg/mL)
